Laboratory results taken from ChEMBL document CHEMBL4152341, “Small Molecules Simultaneously Inhibiting p53-Murine Double Minute 2 (MDM2) Interaction and Histone Deacetylases (HDACs): Discovery of Novel Multitargeting Antitumor Agents” (J Med Chem, 2018).

Assays:
HCT-116 = assay: Antiproliferative activity against human HCT116 cells after 72 hrs by CCK8 assay; type: functional, cell-based; details: HCT-116, 72 h
Histone deacetylase 1 = Histone deacetylase 1 (Homo sapiens, UniProt Q13547); assay: Inhibition of human recombinant full length HDAC1 using fluorogenic substrate 3 after 30 mins by fluorescence assay
[1] = biological target: E3 ubiquitin-protein ligase Mdm2 (Homo sapiens, UniProt Q00987); assay: Inhibition of MDM2 (unknown origin) preincubated for 30 mins by fluorescence polarization assay
A549 [2] = assay: Antiproliferative activity against human A549 cells after 72 hrs by CCK8 assay; type: functional, cell-based; details: A549, 72 h
NCI-H1299 = assay: Antiproliferative activity against human NCI-H1299 cells after 72 hrs by CCK8 assay; type: functional, cell-based; details: NCI-H1299, 72 h
Histone deacetylase 2 = Histone deacetylase 2 (Homo sapiens, UniProt Q92769); assay: Inhibition of HDAC2 (unknown origin) after 30 mins by fluorescence assay
Histone deacetylase 3 = Histone deacetylase 3 (Homo sapiens, UniProt O15379); assay: Inhibition of HDAC3 (unknown origin) after 30 mins by fluorescence assay
[3] = biological target: T1, Protein deacetylase HDAC6 (Homo sapiens, UniProt Q9UBN7); assay: Inhibition of HDAC6 (unknown origin) after 30 mins by fluorescence assay
T1 sequence (Q9UBN7 whole entry): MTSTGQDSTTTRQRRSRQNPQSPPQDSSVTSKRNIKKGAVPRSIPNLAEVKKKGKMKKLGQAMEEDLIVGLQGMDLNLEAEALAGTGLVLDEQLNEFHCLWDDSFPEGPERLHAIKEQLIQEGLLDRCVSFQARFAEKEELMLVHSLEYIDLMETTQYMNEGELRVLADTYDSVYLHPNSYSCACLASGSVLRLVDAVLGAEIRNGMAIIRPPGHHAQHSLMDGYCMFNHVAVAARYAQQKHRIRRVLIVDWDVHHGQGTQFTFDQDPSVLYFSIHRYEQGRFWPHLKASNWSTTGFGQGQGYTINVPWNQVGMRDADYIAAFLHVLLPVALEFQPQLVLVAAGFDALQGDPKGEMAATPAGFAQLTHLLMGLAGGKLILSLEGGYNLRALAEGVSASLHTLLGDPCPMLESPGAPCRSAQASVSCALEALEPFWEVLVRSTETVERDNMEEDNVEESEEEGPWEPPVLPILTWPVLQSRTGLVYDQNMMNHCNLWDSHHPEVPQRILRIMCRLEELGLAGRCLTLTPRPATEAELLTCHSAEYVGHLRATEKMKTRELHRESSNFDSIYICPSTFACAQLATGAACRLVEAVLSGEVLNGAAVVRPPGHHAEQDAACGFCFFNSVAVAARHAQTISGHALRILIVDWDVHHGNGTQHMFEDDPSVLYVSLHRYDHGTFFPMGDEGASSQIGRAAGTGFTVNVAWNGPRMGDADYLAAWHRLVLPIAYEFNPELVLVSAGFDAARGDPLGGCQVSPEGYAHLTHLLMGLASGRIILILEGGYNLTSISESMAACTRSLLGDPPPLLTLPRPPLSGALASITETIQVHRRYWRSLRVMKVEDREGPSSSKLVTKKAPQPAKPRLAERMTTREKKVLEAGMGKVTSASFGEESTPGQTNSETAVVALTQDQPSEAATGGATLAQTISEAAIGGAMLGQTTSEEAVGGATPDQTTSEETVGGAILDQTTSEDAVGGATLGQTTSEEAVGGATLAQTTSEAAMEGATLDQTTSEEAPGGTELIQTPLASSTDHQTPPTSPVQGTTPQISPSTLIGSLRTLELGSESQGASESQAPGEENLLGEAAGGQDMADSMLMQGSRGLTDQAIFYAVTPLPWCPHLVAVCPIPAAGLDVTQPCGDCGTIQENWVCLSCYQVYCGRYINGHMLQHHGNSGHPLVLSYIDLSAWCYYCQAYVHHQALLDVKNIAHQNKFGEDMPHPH

Histone deacetylase 8 = biological target: T2, Histone deacetylase 8 (Homo sapiens, UniProt Q9BY41); assay: Inhibition of HDAC8 (unknown origin) after 30 mins by fluorescence assay
T2 sequence (Q9BY41 whole entry): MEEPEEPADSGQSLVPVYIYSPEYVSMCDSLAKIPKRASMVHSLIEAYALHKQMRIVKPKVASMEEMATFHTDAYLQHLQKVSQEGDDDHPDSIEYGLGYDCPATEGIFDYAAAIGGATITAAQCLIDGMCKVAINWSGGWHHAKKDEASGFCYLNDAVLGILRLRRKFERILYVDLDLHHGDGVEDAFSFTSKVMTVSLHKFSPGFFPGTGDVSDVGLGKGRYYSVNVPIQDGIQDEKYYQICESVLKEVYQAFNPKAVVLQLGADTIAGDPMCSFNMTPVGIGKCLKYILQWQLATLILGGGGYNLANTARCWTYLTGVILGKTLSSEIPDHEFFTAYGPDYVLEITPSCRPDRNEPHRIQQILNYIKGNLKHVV

A549 [4] = assay: Antitumor activity against human A549 cells xenografted in BALB/C nude mouse assessed as inhibition of tumor growth administered orally once daily for 21 days starting day 11 after tumor cells implantation; type: functional, cell-based
A549 [5] = assay: animal or person; type: functional, Homo sapiens; details: Mus musculus, A549, po, read-out: TGI
A549 [6] = assay: Antitumor activity against human A549 cells xenografted in BALB/C nude mouse assessed as inhibition of tumor growth at 150 mg/kg, po administered once daily for 21 days starting day 11 after tumor cells implantation; type: functional; details: read-out: TGI
Mus musculus [7] = assay: Toxicity in human A549 cells xenografted in BALB/C nude mouse assessed as body weight loss at 100 to 150 mg/kg, po administered once daily for 21 days starting day 11 after tumor cells implantation; type: organism-based; details: in vivo, 504 h
[8] = Terminal half life in Sprague-Dawley rat at 2 mg/kg, iv administered as bolus dose by LC-MS/MS analysis; type: ADME, organism-based; details: in vivo, read-out: beta t1/2 (converted)
[9] = Tmax in Sprague-Dawley rat at 2 mg/kg, iv administered as bolus dose by LC-MS/MS analysis; type: ADME, organism-based; details: in vivo
[10] = Cmax in Sprague-Dawley rat at 2 mg/kg, iv administered as bolus dose by LC-MS/MS analysis; type: ADME, organism-based; design: dose 2 mg/kg, route intravenous; details: in vivo
Rattus norvegicus [11] = assay: AUC (0 to infinity) in Sprague-Dawley rat at 2 mg/kg, iv administered as bolus dose by LC-MS/MS analysis; type: ADME, organism-based; design: dose 2 mg/kg, time infinity, route intravenous; details: in vivo
Rattus norvegicus [12] = assay: Volume of distribution at steady state in Sprague-Dawley rat at 2 mg/kg, iv administered as bolus dose by LC-MS/MS analysis; type: ADME, organism-based; details: in vivo
Rattus norvegicus [13] = assay: Clearance in Sprague-Dawley rat at 2 mg/kg, iv administered as bolus dose by LC-MS/MS analysis; type: ADME, organism-based; details: in vivo
[14] = Terminal half life in Sprague-Dawley rat at 20 mg/kg, po administered via gavage by LC-MS/MS analysis; type: ADME, organism-based; details: in vivo, read-out: beta t1/2 (converted)
[15] = Tmax in Sprague-Dawley rat at 20 mg/kg, po administered via gavage by LC-MS/MS analysis; type: ADME, organism-based; details: in vivo
[16] = Cmax in Sprague-Dawley rat at 20 mg/kg, po administered via gavage by LC-MS/MS analysis; type: ADME, organism-based; design: dose 20 mg/kg, route oral; details: in vivo
Rattus norvegicus [17] = assay: AUC (0 to infinity) in Sprague-Dawley rat at 20 mg/kg, po administered via gavage by LC-MS/MS analysis; type: ADME, organism-based; design: dose 20 mg/kg, route oral, time infinity; details: in vivo
Rattus norvegicus [18] = assay: Oral bioavailability in Sprague-Dawley rat at 20 mg/kg administered via gavage by LC-MS/MS analysis; type: ADME, organism-based; details: in vivo
Mus musculus [19] = assay: Toxicity in human A549 cells xenografted in BALB/C nude mouse assessed as induction of adverse effects at 100 to 150 mg/kg, po administered once daily for 21 days starting day 11 after tumor cells implantation; type: organism-based; details: in vivo, 504 h
MCF7 = assay: cells; details: Homo sapiens, MCF7, 72 h
Description: Antiproliferative activity against human MCF7 cells after 72 hrs by CCK8 assay

A549 [20] = assay: cells; details: Homo sapiens, A549, 48 h, read-out: Activity
A549 [21] = assay: cells; details: Homo sapiens, A549, 48 h, read-out: Activity; remark: listed apart in the source

Chain of Histone deacetylase 1 (Q13547 whole entry): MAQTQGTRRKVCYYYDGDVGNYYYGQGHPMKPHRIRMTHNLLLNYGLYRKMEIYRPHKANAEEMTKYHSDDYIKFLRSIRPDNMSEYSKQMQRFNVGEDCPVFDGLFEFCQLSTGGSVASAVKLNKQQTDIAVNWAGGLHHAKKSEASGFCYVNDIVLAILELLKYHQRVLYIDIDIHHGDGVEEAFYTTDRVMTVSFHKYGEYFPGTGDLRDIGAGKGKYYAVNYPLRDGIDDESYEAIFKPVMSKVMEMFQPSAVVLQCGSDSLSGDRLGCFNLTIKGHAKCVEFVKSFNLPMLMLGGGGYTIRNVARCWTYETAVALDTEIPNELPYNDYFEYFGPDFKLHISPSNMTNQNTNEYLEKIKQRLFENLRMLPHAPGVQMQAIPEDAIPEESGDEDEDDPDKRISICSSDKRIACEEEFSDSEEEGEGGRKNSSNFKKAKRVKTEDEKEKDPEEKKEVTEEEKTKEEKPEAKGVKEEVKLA
Chain of E3 ubiquitin-protein ligase Mdm2 (Q00987 whole entry): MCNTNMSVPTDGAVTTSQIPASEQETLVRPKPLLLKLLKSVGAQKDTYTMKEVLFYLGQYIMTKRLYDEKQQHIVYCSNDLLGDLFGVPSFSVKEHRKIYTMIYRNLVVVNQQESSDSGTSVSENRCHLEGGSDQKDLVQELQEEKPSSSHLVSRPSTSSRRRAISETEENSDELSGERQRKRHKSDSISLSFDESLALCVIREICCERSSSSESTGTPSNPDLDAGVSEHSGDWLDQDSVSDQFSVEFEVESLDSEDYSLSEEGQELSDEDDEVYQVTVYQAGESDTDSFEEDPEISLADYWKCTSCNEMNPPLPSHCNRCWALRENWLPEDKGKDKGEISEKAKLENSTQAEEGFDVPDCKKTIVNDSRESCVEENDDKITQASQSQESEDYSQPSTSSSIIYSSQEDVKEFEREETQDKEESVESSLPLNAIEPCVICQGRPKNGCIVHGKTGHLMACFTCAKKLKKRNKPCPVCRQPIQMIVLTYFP
Chain of Histone deacetylase 2 (Q92769 whole entry): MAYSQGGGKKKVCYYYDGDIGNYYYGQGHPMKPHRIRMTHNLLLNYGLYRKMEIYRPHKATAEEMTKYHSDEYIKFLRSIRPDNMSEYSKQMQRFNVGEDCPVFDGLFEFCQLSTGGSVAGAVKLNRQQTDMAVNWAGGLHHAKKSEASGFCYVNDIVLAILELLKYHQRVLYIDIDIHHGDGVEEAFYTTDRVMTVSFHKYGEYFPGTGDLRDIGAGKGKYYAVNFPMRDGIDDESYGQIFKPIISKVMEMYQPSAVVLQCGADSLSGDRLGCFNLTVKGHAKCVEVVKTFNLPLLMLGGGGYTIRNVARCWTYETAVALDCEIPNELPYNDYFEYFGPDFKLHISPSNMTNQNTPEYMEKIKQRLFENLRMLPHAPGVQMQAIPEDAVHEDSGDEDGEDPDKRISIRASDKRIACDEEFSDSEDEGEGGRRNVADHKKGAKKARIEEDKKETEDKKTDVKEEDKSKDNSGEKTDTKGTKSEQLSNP
Chain of Histone deacetylase 3 (O15379 whole entry): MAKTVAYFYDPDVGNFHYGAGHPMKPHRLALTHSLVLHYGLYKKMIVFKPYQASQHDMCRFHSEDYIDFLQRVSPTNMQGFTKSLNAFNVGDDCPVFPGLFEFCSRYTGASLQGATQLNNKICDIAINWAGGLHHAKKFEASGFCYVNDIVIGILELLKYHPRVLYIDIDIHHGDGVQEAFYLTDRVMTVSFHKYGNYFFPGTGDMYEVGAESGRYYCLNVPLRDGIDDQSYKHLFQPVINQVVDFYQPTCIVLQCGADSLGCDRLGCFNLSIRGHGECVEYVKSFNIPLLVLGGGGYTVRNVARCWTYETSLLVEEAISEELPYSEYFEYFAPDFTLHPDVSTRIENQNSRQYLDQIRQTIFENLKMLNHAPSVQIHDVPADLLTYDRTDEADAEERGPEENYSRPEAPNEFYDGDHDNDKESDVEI

CCOc1cc(C(C)(C)C)ccc1C1=NC(c2ccc(Cl)cc2)C(c2ccc(Cl)cc2)N1C(=O)N1CCN(CCCCCCC(=O)NO)CC1 (stereo not drawn)
IC50 (HCT-116): 1080 nM
IC50 (Histone deacetylase 1): 820 nM
Ki [1]: 110 nM
IC50 (A549 [2]): 910 nM
IC50 (NCI-H1299): 4.16 µM
IC50 (Histone deacetylase 2): 420 nM
IC50 (Histone deacetylase 3): 178 nM
IC50 [3]: 17.5 nM
IC50 (Histone deacetylase 8): 1220 nM
TGI (A549 [4]): Dose-dependent effect
inhibition in vivo at 100 mg/kg (A549 [5]): 65.4%
inhibition in vivo at 150 mg/kg (A549 [6]): 74.5%
Activity (Mus musculus [7]): Non-Toxic
half-life [8]: 73.2 min
Tmax [9]: 4.98 min
Cmax [10]: 1470 ng/mL
AUC (Rattus norvegicus [11]): 716.3 ng·h/mL
Vdss (Rattus norvegicus [12]): 4900 mL/kg
clearance (Rattus norvegicus [13]): 2810 mL/h/kg
half-life [14]: 352 min
Tmax [15]: 3.33 h
Cmax [16]: 93.7 ng/mL
AUC (Rattus norvegicus [17]): 323.23 ng·h/mL
F (Rattus norvegicus [18]): 18%
Activity (Mus musculus [19]): Non-Toxic
IC50 (MCF7): 4.34 µM
viability at 1 µM (A549 [20]): 77.2%
viability at 5 µM (A549 [21]): 64.9%
